Measured values taken from patent US20200055839A1 (priority 2017, published 2020).

tested on: NL-RLuc virus; assay: Inhibition of HIV replication (NL-RLuc virus, luciferase readout in MT-2 cells); format: cell-based; conditions: Human immunodeficiency virus 1, MT2, 120 h, MT-2 cells infected with NL-RLuc virus, 5 days of incubation, 10% FBS, at least 2 experiments
In short: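 EC50 derived via median effect equation from at least 2 experiments, using luciferase expression as virus-growth readout. Replication-competent NL-RLuc reporter virus (nef partly replaced by Renilla luciferase) infected MT-2 cells with serial compound dilutions; 5-day incubation in RPMI 1640 plus 10% FBS.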

First: Cc1nc(Nc2ccnnc2)c(-c2ccc(OCCc3ccc(F)cc3)c(F)c2)c(N2CCC(C)(C)CC2)c1[C@H](OC(C)(C)C)C(=O)O [Example 74, (S)-2-(tert-Butoxy)-2-(4-(4,4-dimethylpiperidin-1-yl)-5-(3-fluoro-4-(4-fluorophenethoxy)phenyl)-2-methyl-6-(pyridazin-4-ylamino)pyridin-3-yl)acetic acid]
Second: Cc1nc(Nc2ccncc2F)c(-c2ccc(OCCc3ccc(F)cc3)cc2)c(N2CCC(C)(C)CC2)c1[C@H](OC(C)(C)C)C(=O)O [Example 93, (S)-2-(tert-Butoxy)-2-(4-(4,4-dimethylpiperidin-1-yl)-5-(4-(4-fluorophenethoxy)phenyl)-6-((3-fluoropyridin-4-yl)amino)-2-methylpyridin-3-yl)acetic acid]
The EC50 of the first is 6-fold lower: 2 nM for the first, 12 nM for the second.

Cc1nn(-c2nc(C)c([C@H](OC(C)(C)C)C(=O)O)c(N3CCC(C)(C)CC3)c2-c2ccc(OCCc3ccc(F)cc3)cc2)c(C)c1C [Example 75, (S)-2-(tert-Butoxy)-2-(4-(4,4-dimethylpiperidin-1-yl)-5-(4-(4-fluorophenethoxy)phenyl)-2-methyl-6-(3,4,5-trimethyl-H-pyrazol-1-yl)pyridin-3-yl)acetic acid] and Cc1nc(-n2nc3c(c2N)CCC3)c(-c2ccc(OCCc3ccc(F)cc3)cc2)c(N2CCC(C)(C)CC2)c1[C@H](OC(C)(C)C)C(=O)O [Example 76, (S)-2-(6-(3-Amino-5,6-dihydrocyclopenta[c]pyrazol-2(4H)-yl)-4-(4,4-dimethylpiperidin-1-yl)-5-(4-(4-fluorophenethoxy)phenyl)-2-methylpyridin-3-yl)-2-(tert-butoxy)acetic acid] are within 1.5-fold of each other in EC50: 3 nM for the first, 4 nM for the second.

Cc1nc(Nc2ccncc2)c(-c2ccc(OCCc3ccc(F)cc3)cc2)c(N2CCC(C)(C)CC2)c1[C@H](OC(C)(C)C)C(=O)O [Example 77, (S)-2-(tert-Butoxy)-2-(4-(4,4-dimethylpiperidin-1-yl)-5-(4-(4-fluorophenethoxy)phenyl)-2-methyl-6-(pyridin-4-ylamino)pyridin-3-yl)acetic acid] and Cc1nc(Nc2ccncn2)c(-c2ccc(OCCc3ccc(F)cc3)cc2)c(N2CCC(C)(C)CC2)c1[C@H](OC(C)(C)C)C(=O)O [Example 88, (S)-2-(tert-Butoxy)-2-(4-(4,4-dimethylpiperidin-1-yl)-5-(4-(4-fluorophenethoxy)phenyl)-2-methyl-6-(pyrimidin-4-ylamino)pyridin-3-yl)acetic acid] are within 1.5-fold of each other in EC50: 0.6 nM for the first, 0.5 nM for the second.

Cc1ccc(Nc2nc(C)c([C@H](OC(C)(C)C)C(=O)O)c(N3CCC(C)(C)CC3)c2-c2ccc(OCCc3ccc(F)cc3)cc2)nc1 [Example 78, (S)-2-(tert-Butoxy)-2-(4-(4,4-dimethylpiperidin-1-yl)-5-(4-(4-fluorophenethoxy)phenyl)-2-methyl-6-((5-methylpyridin-2-yl)amino)pyridin-3-yl)acetic acid] and Cc1nc(Nc2ccc(F)cn2)c(-c2ccc(OCCc3ccc(F)cc3)cc2)c(N2CCC(C)(C)CC2)c1[C@H](OC(C)(C)C)C(=O)O [Example 83, (S)-2-(tert-Butoxy)-2-(4-(4,4-dimethylpiperidin-1-yl)-5-(4-(4-fluorophenethoxy)phenyl)-6-((5-fluoropyridin-2-yl)amino)-2-methylpyridin-3-yl)acetic acid] are within 1.5-fold of each other in EC50: 6 nM for the first, 5 nM for the second.

Going from Cc1ccnc(Nc2nc(C)c([C@H](OC(C)(C)C)C(=O)O)c(N3CCC(C)(C)CC3)c2-c2ccc(OCCc3ccc(F)cc3)cc2)c1 [Example 79, (S)-2-(tert-Butoxy)-2-(4-(4,4-dimethylpiperidin-1-yl)-5-(4-(4-fluorophenethoxy)phenyl)-2-methyl-6-((4-methylpyridin-2-yl)amino)pyridin-3-yl)acetic acid] to Cc1nc(Nc2cc(F)ccn2)c(-c2ccc(OCCc3ccc(F)cc3)cc2)c(N2CCC(C)(C)CC2)c1[C@H](OC(C)(C)C)C(=O)O [Example 81, (S)-2-(tert-Butoxy)-2-(4-(4,4-dimethylpiperidin-1-yl)-5-(4-(4-fluorophenethoxy)phenyl)-6-((4-fluoropyridin-2-yl)amino)-2-methylpyridin-3-yl)acetic acid], the EC50 rises from 6 nM to 11 nM (1.8-fold). The first is the more potent here.

Compared with Cc1cccc(Nc2nc(C)c([C@H](OC(C)(C)C)C(=O)O)c(N3CCC(C)(C)CC3)c2-c2ccc(OCCc3ccc(F)cc3)cc2)n1 [Example 80, (S)-2-(tert-Butoxy)-2-(4-(4,4-dimethylpiperidin-1-yl)-5-(4-(4-fluorophenethoxy)phenyl)-2-methyl-6-((6-methylpyridin-2-yl)amino)pyridin-3-yl)acetic acid], Cc1nc(Nc2cccc(F)n2)c(-c2ccc(OCCc3ccc(F)cc3)cc2)c(N2CCC(C)(C)CC2)c1[C@H](OC(C)(C)C)C(=O)O [Example 89, (S)-2-(tert-Butoxy)-2-(4-(4,4-dimethylpiperidin-1-yl)-5-(4-(4-fluorophenethoxy)phenyl)-6-((6-fluoropyridin-2-yl)amino)-2-methylpyridin-3-yl)acetic acid] is 6.5-fold higher in EC50: 2 nM for the first, 13 nM for the second. The first is the more potent here.

Going from Cc1nc(Nc2ncccc2F)c(-c2ccc(OCCc3ccc(F)cc3)cc2)c(N2CCC(C)(C)CC2)c1[C@H](OC(C)(C)C)C(=O)O [Example 82, (S)-2-(tert-Butoxy)-2-(4-(4,4-dimethylpiperidin-1-yl)-5-(4-(4-fluorophenethoxy)phenyl)-6-((3-fluoropyridin-2-yl)amino)-2-methylpyridin-3-yl)acetic acid] to Cc1nc(Nc2cccnc2F)c(-c2ccc(OCCc3ccc(F)cc3)cc2)c(N2CCC(C)(C)CC2)c1[C@H](OC(C)(C)C)C(=O)O [Example 90, (S)-2-(tert-Butoxy)-2-(4-(4,4-dimethylpiperidin-1-yl)-5-(4-(4-fluorophenethoxy)phenyl)-6-((2-fluoropyridin-3-yl)amino)-2-methylpyridin-3-yl)acetic acid], the EC50 rises from 2 nM to 5 nM (2.5-fold). The first is the more potent here.

Compared with Cc1ccc(Nc2nc(C)c([C@H](OC(C)(C)C)C(=O)O)c(N3CCC(C)(C)CC3)c2-c2ccc(OCCc3ccc(F)cc3)cc2)c(C)n1 [Example 85, (S)-2-(tert-Butoxy)-2-(4-(4,4-dimethylpiperidin-1-yl)-6-((2,6-dimethylpyridin-3-yl)amino)-5-(4-(4-fluorophenethoxy)phenyl)-2-methylpyridin-3-yl)acetic acid], Cc1ncccc1Nc1nc(C)c([C@H](OC(C)(C)C)C(=O)O)c(N2CCC(C)(C)CC2)c1-c1ccc(OCCc2ccc(F)cc2)cc1 [Example 94, (S)-2-(tert-Butoxy)-2-(4-(4,4-dimethylpiperidin-1-yl)-5-(4-(4-fluorophenethoxy)phenyl)-2-methyl-6-((2-methylpyridin-3-yl)amino)pyridin-3-yl)acetic acid] is 2-fold higher in EC50: 3 nM for the first, 6 nM for the second.

Cc1ccncc1Nc1nc(C)c([C@H](OC(C)(C)C)C(=O)O)c(N2CCC(C)(C)CC2)c1-c1ccc(OCCc2ccc(F)cc2)cc1 [Example 86, (S)-2-(tert-Butoxy)-2-(4-(4,4-dimethylpiperidin-1-yl)-5-(4-(4-fluorophenethoxy)phenyl)-2-methyl-6-((4-methylpyridin-3-yl)amino)pyridin-3-yl)acetic acid] and Cc1nc(NCc2cccnc2)c(-c2ccc(OCCc3ccc(F)cc3)cc2)c(N2CCC(C)(C)CC2)c1[C@H](OC(C)(C)C)C(=O)O [Example 92, (S)-2-(tert-Butoxy)-2-(4-(4,4-dimethylpiperidin-1-yl)-5-(4-(4-fluorophenethoxy)phenyl)-2-methyl-6-((pyridin-3-ylmethyl)amino)pyridin-3-yl)acetic acid] are within 1.5-fold of each other in EC50: 3 nM for the first, 4 nM for the second.

Compared with Cc1nc(Nc2cnn(C)c2)c(-c2ccc(OCCc3ccc(F)cc3)cc2)c(N2CCC(C)(C)CC2)c1[C@H](OC(C)(C)C)C(=O)O [Example 87, (S)-2-(tert-Butoxy)-2-(4-(4,4-dimethylpiperidin-1-yl)-5-(4-(4-fluorophenethoxy)phenyl)-2-methyl-6-((1-methyl-H-pyrazol-4-yl)amino)pyridin-3-yl)acetic acid], Cc1nc(NCc2ccccn2)c(-c2ccc(OCCc3ccc(F)cc3)cc2)c(N2CCC(C)(C)CC2)c1[C@H](OC(C)(C)C)C(=O)O [Example 97, (S)-2-(tert-Butoxy)-2-(4-(4,4-dimethylpiperidin-1-yl)-5-(4-(4-fluorophenethoxy)phenyl)-2-methyl-6-((pyridin-2-ylmethyl)amino)pyridin-3-yl)acetic acid] is 2.5-fold higher in EC50: 2 nM for the first, 5 nM for the second. The first is the more potent here.

Compared with Cc1nc(NCCCC2CCCCC2)c(-c2ccc(OCCc3ccc(F)cc3)cc2)c(N2CCC(C)(C)CC2)c1[C@H](OC(C)(C)C)C(=O)O [Example 91, (S)-2-(tert-Butoxy)-2-(6-((3-cyclohexylpropyl)amino)-4-(4,4-dimethylpiperidin-1-yl)-5-(4-(4-fluorophenethoxy)phenyl)-2-methylpyridin-3-yl)acetic acid], Cc1nc(N(C)CCCN(C)C)c(-c2ccc(OCCc3ccc(F)cc3)cc2)c(N2CCC(C)(C)CC2)c1[C@H](OC(C)(C)C)C(=O)O [Example 98, (S)-2-(tert-Butoxy)-2-(6-((3-(dimethylamino)propyl)(methyl)amino)-4-(4,4-dimethylpiperidin-1-yl)-5-(4-(4-fluorophenethoxy)phenyl)-2-methylpyridin-3-yl)acetic acid] is 36-fold lower in EC50: 72 nM for the first, 2 nM for the second. The second is the more potent here.

same assay, conditions: MT-2 cells infected with NL-RLuc virus, 5 days of incubation, 10% FBS, at least 2 experiments

Cc1nc(Nc2ccnc(F)c2)c(-c2ccc(OCCc3ccc(F)cc3)cc2)c(N2CCC(C)(C)CC2)c1[C@H](OC(C)(C)C)C(=O)O [Example 95, (S)-2-(tert-Butoxy)-2-(4-(4,4-dimethylpiperidin-1-yl)-5-(4-(4-fluorophenethoxy)phenyl)-6-((2-fluoropyridin-4-yl)amino)-2-methylpyridin-3-yl)acetic acid] gave an EC50 of 8 nM.
Cc1nc(Nc2ccnc(F)c2)c(-c2ccc(OCCc3ccc(F)cc3)cc2)c(N2CCC(C)(C)CC2)c1[C@H](OC(C)(C)C)C(=O)O [Example 96, (S)-2-(tert-Butoxy)-2-(4-(4,4-dimethylpiperidin-1-yl)-5-(4-(4-fluorophenethoxy)phenyl)-6-((2-fluoropyridin-4-yl)amino)-2-methylpyridin-3-yl)acetic acid] showed an EC50 of 21 nM.
